Read-outs that look alike come from different tables or passages of the source.
How the values were obtained:
OVCAR-3 = OVCAR-3 (Ovarian Cancer), 48 hours, SRB
HCT-116 = HCT-116 (Colon Cancer), 48 hours, SRB
U251 = U251 (CNS Cancer), 48 hours, SRB
KM12 = KM12 (Colon Cancer), 48 hours, SRB
MDA-MB-468 = MDA-MB-468 (Breast Cancer), 48 hours, SRB
T-47D = T-47D (Breast Cancer), 48 hours, SRB
OVCAR-5 = OVCAR-5 (Ovarian Cancer), 48 hours, SRB
HCT-15 = HCT-15 (Colon Cancer), 48 hours, SRB
SK-MEL-2 = SK-MEL-2 (Melanoma), 48 hours, SRB
MALME-3M = MALME-3M (Melanoma), 48 hours, SRB
DU-145 = DU-145 (Prostate Cancer), 48 hours, SRB
HCC-2998 = HCC-2998 (Colon Cancer), 48 hours, SRB
NCI-H522 = NCI-H522 (Non-Small Cell Lung Cancer), 48 hours, SRB
HT29 = HT29 (Colon Cancer), 48 hours, SRB
SK-MEL-5 = SK-MEL-5 (Melanoma), 48 hours, SRB
UACC62 = UACC62 (Melanoma), 48 hours, SRB
SNB-75 = SNB-75 (CNS Cancer), 48 hours, SRB
MOLT-4 = MOLT-4 (Leukemia), 48 hours, SRB
A498 = A498 (Renal Cancer), 48 hours, SRB
NCI-H226 = NCI-H226 (Non-Small Cell Lung Cancer), 48 hours, SRB
SK-MEL-28 = SK-MEL-28 (Melanoma), 48 hours, SRB
IGROV1 = IGROV1 (Ovarian Cancer), 48 hours, SRB
HS578T = HS578T (Breast Cancer), 48 hours, SRB
BT-549 = BT-549 (Breast Cancer), 48 hours, SRB
NCI-H23 = NCI-H23 (Non-Small Cell Lung Cancer), 48 hours, SRB
MCF7 = MCF7 (Breast Cancer), 48 hours, SRB
SF-268 = SF-268 (CNS Cancer), 48 hours, SRB
SF-539 = SF-539 (CNS Cancer), 48 hours, SRB
SK-OV-3 = SK-OV-3 (Ovarian Cancer), 48 hours, SRB
CCRF-CEM = CCRF-CEM (Leukemia), 48 hours, SRB
SN12C = SN12C (Renal Cancer), 48 hours, SRB

## CC1(C)C=Cc2c(ccc3c4c(n(O)c23)C(C)(C)C2CC35CCCN3C(=O)C2(NC5=O)C4SCC(NC(=O)CCC(N)C(=O)O)C(=O)NCC(=O)O)O1 (stereo not shown) [Glutathione Adduct]
OVCAR-3
  GI50: 0.735 µM
  TGI: 1.52 µM
OVCAR-3; read-out: LC50
  CC50: 3.13 µM
HCT-116
  GI50: 0.871 µM
  TGI: 1.76 µM
HCT-116; read-out: LC50
  CC50: 3.55 µM
U251
  GI50: 0.819 µM
  TGI: 1.97 µM
U251; read-out: LC50
  CC50: 4.76 µM
KM12
  GI50: 0.979 µM
  TGI: 1.91 µM
KM12; read-out: LC50
  CC50: 3.73 µM
MDA-MB-468
  GI50: 0.674 µM
  TGI: 1.62 µM
T-47D
  GI50: 0.319 µM
  TGI: 2.47 µM
T-47D; read-out: LC50
  CC50: 46 µM
OVCAR-5
  GI50: 0.971 µM
  TGI: 3.03 µM
OVCAR-5; read-out: LC50
  CC50: 12 µM
HCT-15
  GI50: 0.84 µM
  TGI: 2.04 µM
HCT-15; read-out: LC50
  CC50: 4.93 µM
SK-MEL-2
  GI50: 0.877 µM
  TGI: 2.44 µM
SK-MEL-2; read-out: LC50
  CC50: 10.9 µM
MALME-3M
  GI50: 0.419 µM
  TGI: 3.1 µM
MALME-3M; read-out: LC50
  CC50: 25.1 µM
DU-145
  GI50: 1.16 µM
  TGI: 2.65 µM
DU-145; read-out: LC50
  CC50: 7.88 µM
HCC-2998
  GI50: 0.759 µM
  TGI: 1.51 µM
HCC-2998; read-out: LC50
  CC50: 3.02 µM
NCI-H522
  GI50: 0.727 µM
  TGI: 1.95 µM
NCI-H522; read-out: LC50
  CC50: 6.29 µM
HT29
  GI50: 0.9 µM
  TGI: 2.01 µM
HT29; read-out: LC50
  CC50: 4.51 µM
SK-MEL-5
  GI50: 0.826 µM
  TGI: 1.86 µM
SK-MEL-5; read-out: LC50
  CC50: 4.17 µM
UACC62
  GI50: 0.649 µM
  TGI: 1.72 µM
UACC62; read-out: LC50
  CC50: 4.56 µM
SNB-75
  GI50: 0.896 µM
  TGI: 2.45 µM
SNB-75; read-out: LC50
  CC50: 8.47 µM
HL-60(TB)
  CC50: 13.3 µM
  GI50: 0.321 µM
  TGI: 1.62 µM
MOLT-4
  GI50: 0.425 µM
  TGI: 1.75 µM
MOLT-4; read-out: LC50
  CC50: 20.6 µM
A498
  GI50: 0.804 µM
  TGI: 1.83 µM
A498; read-out: LC50
  CC50: 4.16 µM
NCI-H226
  GI50: 0.802 µM
  TGI: 2.29 µM
NCI-H226; read-out: LC50
  CC50: 8.33 µM
SK-MEL-28
  GI50: 0.985 µM
  TGI: 1.95 µM
SK-MEL-28; read-out: LC50
  CC50: 3.87 µM
IGROV1
  GI50: 1.06 µM
  TGI: 2.81 µM
IGROV1; read-out: LC50
  CC50: 11.9 µM
HS578T
  GI50: 1.11 µM
  TGI: 3.79 µM
HS578T; read-out: LC50
  CC50: > 50 µM
BT-549
  GI50: 0.923 µM
  TGI: 2.7 µM
BT-549; read-out: LC50
  CC50: 10.5 µM
NCI-H23
  GI50: 1.09 µM
  TGI: 3.07 µM
NCI-H23; read-out: LC50
  CC50: 14.9 µM
MCF7
  GI50: 0.84 µM
  TGI: 3.18 µM
MCF7; read-out: LC50
  CC50: 33.6 µM
SF-268
  GI50: 1.13 µM
  TGI: 2.88 µM
SF-268; read-out: LC50
  CC50: 10.9 µM
SF-539
  GI50: 0.838 µM
  TGI: 2.03 µM
SF-539; read-out: LC50
  CC50: 4.9 µM
SK-OV-3
  GI50: 1.3 µM
  TGI: 5.06 µM
SK-OV-3; read-out: LC50
  CC50: 16.1 µM
CCRF-CEM
  GI50: 0.672 µM
  TGI: 2.03 µM
CCRF-CEM; read-out: LC50
  CC50: 35 µM
SN12C
  GI50: 1.51 µM
  TGI: 5.64 µM
SN12C; read-out: LC50
  CC50: 17.8 µM

## [2H]On1c2c(c3ccc4c(c31)C=CC(C)(C)O4)C(OC([2H])([2H])[2H])[C@@]13NC(=O)C4(CCCN4C1=O)CC3C2(C)C (stereo partly shown) [Deuterated Methanol Adduct]
OVCAR-3
  TGI: 1.81 µM
HCT-116
  TGI: 1.97 µM
U251
  TGI: 1.37 µM
KM12
  TGI: 2.52 µM
MDA-MB-468
  TGI: 1.78 µM
T-47D
  TGI: 1.38 µM
OVCAR-5
  TGI: 1.91 µM
HCT-15
  TGI: 1.77 µM
SK-MEL-2
  TGI: 2.28 µM
MALME-3M
  TGI: 1.56 µM
DU-145
  TGI: 3.12 µM
HCC-2998
  TGI: 2.01 µM
NCI-H522
  TGI: 1.8 µM
HT29
  TGI: 3.68 µM
SK-MEL-5
  TGI: 2.71 µM
UACC62
  TGI: 1.92 µM
SNB-75
  TGI: 1.27 µM
HL-60(TB); HL-60(TB) (Leukemia), 48 hours, SRB
  TGI: 1.45 µM
MOLT-4
  TGI: 1.38 µM
A498
  TGI: 2.22 µM
NCI-H226
  TGI: 1.7 µM
SK-MEL-28
  TGI: 1.82 µM
IGROV1
  TGI: 2.04 µM
HS578T
  TGI: 2.17 µM
BT-549
  TGI: 1.99 µM
NCI-H23
  TGI: 2.43 µM
MCF7
  TGI: 1.33 µM
SF-268
  TGI: 3.01 µM
SF-539
  TGI: 1.46 µM
SK-OV-3
  TGI: 2.16 µM
CCRF-CEM
  TGI: 0.704 µM
SN12C
  TGI: 2.32 µM
